Test results as given in ChEMBL document CHEMBL1135868, “Small ligands interacting with the phosphotyrosine binding pocket of the Src SH2 protein” (Bioorg Med Chem Lett, 2002).
pIC50: −log10 of the molar value.

Molecular target: Proto-oncogene tyrosine-protein kinase Src (Homo sapiens, UniProt P12931)
Test: The compound was evaluated for its binding affinity towards phosphotyrosine binding pocket of Src protein tyrosine kinase SH2 domain

Proto-oncogene tyrosine-protein kinase Src, sequence (P12931 2-536 limits assumed): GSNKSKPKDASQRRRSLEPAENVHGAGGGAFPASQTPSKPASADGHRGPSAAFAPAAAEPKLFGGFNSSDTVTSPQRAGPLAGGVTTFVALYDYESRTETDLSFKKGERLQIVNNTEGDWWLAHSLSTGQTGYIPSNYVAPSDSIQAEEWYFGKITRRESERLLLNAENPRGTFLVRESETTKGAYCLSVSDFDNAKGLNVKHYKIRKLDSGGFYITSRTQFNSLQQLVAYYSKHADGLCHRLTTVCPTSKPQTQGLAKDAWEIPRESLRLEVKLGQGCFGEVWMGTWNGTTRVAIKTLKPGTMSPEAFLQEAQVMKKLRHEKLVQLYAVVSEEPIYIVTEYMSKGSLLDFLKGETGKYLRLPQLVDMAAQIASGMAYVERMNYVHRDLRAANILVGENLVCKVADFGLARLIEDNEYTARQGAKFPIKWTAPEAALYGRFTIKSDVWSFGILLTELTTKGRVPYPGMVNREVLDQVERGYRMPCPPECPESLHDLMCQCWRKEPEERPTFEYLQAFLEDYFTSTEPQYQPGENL

Row | SMILES | pIC50
1 | COP(=O)(O)Oc1ccccc1C=O | 2.48
2 | COC(=O)c1cccc(OP(=O)(O)O)c1 | 2.40
3 | COc1ccc(OP(=O)(O)O)cc1 | 2.40
4 | Cc1ccc(OP(=O)(O)O)cc1 | 2.70
5 | O=P(O)(O)Oc1ccc(SC(F)(F)F)cc1 | 2.92
6 | COC(=O)c1cc2ccccc2cc1OP(=O)(O)O | 2.49
7 | CCc1ccc(NC(=O)P(=O)(O)OCc2ccccc2)cc1 | < 2.30
8 | CC(C)c1ccc(C(O)P(=O)(O)O)cc1 (stereo not drawn) | < 2.00
9 | COc1ccccc1C(O)P(=O)(O)O (stereo not drawn) | < 2.00
10 | O=C(Nc1ccc(OCc2ccccc2)cc1)P(=O)(O)O | 3.10
11 | CCCOc1ccc(C(O)P(=O)(O)O)cc1 (stereo not drawn) | 2.62
12 | O=P(O)(O)Oc1cccc2ccccc12 | 3.00
13 | CCCCOc1ccc(NC(=O)P(=O)(O)O)cc1 | 2.41
14 | O=P(O)(O)Oc1ccc2ccccc2c1 | 3.00
15 | CC(C)(C)c1ccc(OP(=O)(O)O)cc1 | 2.40
16 | COc1cc(NC(=O)P(=O)(O)O)cc(OC)c1OC | 2.68
17 | O=P(O)(O)C(O)c1ccc2ccccc2c1 (stereo not drawn) | 2.36
18 | O=P(O)(O)C(O)C1CCCCC1 (stereo not drawn) | < 2.00
19 | CCOC(=O)c1ccc(NC(=O)P(=O)(O)O)cc1 | 2.44

Row | SMILES | pIC50
20 | O=C(Nc1ccccc1OC(F)(F)F)P(=O)(O)O | 2.40
21 | Cc1cccc(C)c1OP(=O)(O)O | < 2.00
22 | O=P(O)(O)Oc1ccccc1Cl | 2.46
23 | CC(C)OP(=O)(O)Oc1ccccc1C=O | 2.68
24 | O=Cc1cccc(C=O)c1OP(=O)(O)O | 3.30
25 | COC(=O)c1ccc(OP(=O)(O)O)cc1 | 2.40
26 | O=P(O)(O)C(O)c1ccc(-c2ccccc2)cc1 (stereo not drawn) | < 2.00
27 | O=P(O)(O)Oc1cccc2cccnc12 | < 2.00
28 | CC(=O)c1ccc2ccccc2c1OP(=O)(O)O | 2.46
29 | O=Cc1ccccc1OP(=O)(O)O | 3.70
30 | Nc1ccc(OP(=O)(O)O)cc1 | 3.22
31 | O=Cc1cccc(OP(=O)(O)O)c1 | 2.62
32 | Cc1cccc(OP(=O)(O)O)c1 | 2.40
33 | O=C(NCc1ccccc1)P(=O)(O)O [(BENZYLAMINO)CARBONYLPHOSPHONIC ACID] | 2.36
34 | O=P(O)(O)C(O)c1ccccc1 (stereo not drawn) [ALPHA HYDROXY BENZYLPHOSPHONATE] | < 2.00
35 | O=C(O)c1ccccc1OP(=O)(O)O [FOSFOSAL] | 2.70
36 | O=C(NCCc1ccccc1)P(=O)(O)O [PHENETHYLCARBAMOYLPHOSPHONIC ACID] | < 2.30
37 | O=P(O)(O)Oc1ccccc1 [PHENYL DIHYDROGEN PHOSPHATE] | 2.60
38 | O=[N+]([O-])c1ccc(OP(=O)(O)O)cc1 [p-NITROPHENYLPHOSPHATE] | 3.00
